Earlier results in patent US11142559B2, “Glucagon derivative, conjugate thereof, composition comprising same, and therapeutic use thereof” (HANMI PHARM. CO., LTD, priority 2016, dated 2021).

Settings: when taken for one year, according to a report

## CCCCCCCCCCC[C@@H](C[C@@H]1OC(=O)[C@H]1CCCCCC)OC(=O)[C@H](CC(C)C)NC=O [Orlistat]
  weight loss: about 4 kg
